From ChEMBL document CHEMBL4483862, “Open-source discovery of chemical leads for next-generation chemoprotective antimalarials” (2018)

System: Plasmodium berghei
Test: Luciferase/luciferin-expressing antifolate-resistant parasites were used to infect a culture of HepG2 cells that were pre-incubated with compounds. Infected hepatocytes emit light due to the luciferase reaction. Assay results are presented as the percent inhibition of light emission compared to control. […]
Assay type: functional
Details: sporozoite; for IC50: read-out: LUCIFERASE INFECTION ASSAY - IC50; for IC90: read-out: LUCIFERASE INFECTION ASSAY - IC90

Structure (SMILES)	IC50	IC90
Cc1ccc(-c2nc(C(=O)NCCCN(C)C)cc3c2[nH]c2ccccc23)cc1	> 8.54 µM	> 8.54 µM
Cc1ccc(-n2c(-c3ccc(Cl)c(C)c3)csc2=N)c(C)c1	> 9.03 µM	> 9.03 µM
COc1cccc(/C=C2\Oc3c(CN4CCN(C)CC4)c(O)cc(C)c3C2=O)c1	> 8.37 µM	> 8.37 µM
Cc1cccc(N2CCN(c3cc(C)nc4c(-c5ccccc5)c(C)nn34)CC2)n1	> 8.28 µM	> 8.28 µM
CC(C)Oc1cccc(C(=O)N2C(C)CCCC2C)c1 (stereo not drawn)	> 12 µM	> 12 µM
Cc1ccc2c(Cl)c(C(=O)Nc3nonc3-c3ccc(F)cc3)sc2c1	1.77 µM	3.32 µM
O=C1OC(c2ccccc2)=N/C1=C\c1ccc([N+](=O)[O-])s1	> 11 µM	> 11 µM
Cc1ccc(C(C)C)c(OCc2nnnn2-c2ccc(Br)cc2)c1	4.96 µM	> 8.52 µM
Cc1c(C)n(CCCO)c2ncn3nc(-c4ccc(Cl)cc4)nc3c12	> 9.27 µM	> 9.27 µM
COc1cccc(-c2cc(=O)n3c(nc4ccccc43)[nH]2)c1	> 11.3 µM	> 11.3 µM
Cc1ccnc(-n2c(C)c(C)c3c2ncn2nc(Cc4ccccc4)nc32)c1	> 8.96 µM	> 8.96 µM
O=C(Nc1ccc(OCc2nnnn2-c2ccccc2)cc1)c1ccccc1	> 8.89 µM	> 8.89 µM
Cc1ccc2c(c1)CCCN2C(=S)Nc1cccc(C(F)(F)F)c1	> 9.42 µM	> 9.42 µM
Cc1cc(C)n(-c2nc(C)c(Br)c(N(C)C)n2)n1	> 10.6 µM	> 10.6 µM
O=c1c2cc(Br)cc(Br)c2nc(-c2ccccc2)n1-c1cc(C(F)(F)F)cc(C(F)(F)F)c1	> 5.57 µM	> 5.57 µM
CC(C(=O)Nc1ccc(O)cc1)c1ccc2c(c1)[nH]c1ccc(Cl)cc12 (stereo not drawn)	> 9.05 µM	> 9.05 µM
CC(C)[C@H](NS(=O)(=O)c1ccccc1)C(=O)NCc1ccccc1	> 9.53 µM	> 9.53 µM
CN(C)c1ncnc2scc(-c3ccc(Cl)cc3)c12	4.05 µM	> 11.4 µM
Cc1ccc(S(=O)(=O)Oc2ccc(Cl)cc2Sc2cc(Cl)ccc2OS(=O)(=O)c2ccc(C)cc2)cc1	> 5.54 µM	> 5.54 µM
Cc1cc(Oc2ccc(C(F)(F)F)cc2N=CC(C#N)C#N)cc(C)c1Cl	> 8.42 µM	> 8.42 µM
COc1cccc(-c2cc(=O)n(-c3ccc(F)cc3)[nH]2)c1	> 11.6 µM	> 11.6 µM
S=C(Nc1ccc(C2=NCCO2)cc1)Nc1ccc(Cl)c(Cl)c1	> 9.01 µM	> 9.01 µM

Structure (SMILES)	IC50	IC90
CC(C)NCC(=O)Nc1cccc2c1C(=O)c1ccccc1C2=O	8.29 µM	> 10.2 µM
C=CCNC(=O)COc1ccc2c(=O)c(-c3ccc(Cl)cc3)c(C)oc2c1	> 8.6 µM	> 8.6 µM
COc1ccc(/C=C2\Oc3c(CN(C)C)c(O)cc(C)c3C2=O)cc1	> 9.72 µM	> 9.72 µM
Nc1cc(C(F)(F)F)ccc1Oc1ccc(Cl)cc1Cl	> 10.2 µM	> 10.2 µM
CC(C)(C)c1ccc(OS(=O)(=O)c2ccc(Oc3c(Cl)cccc3[N+](=O)[O-])cc2)cc1	> 7.14 µM	> 7.14 µM
O=C(Nc1ccc(Oc2ccc(OC(F)(F)F)cc2)cc1)Nc1ccc(OC(F)(F)F)cc1	> 6.99 µM	> 6.99 µM
COc1cccc(-n2c(C)cc(C(=O)CSc3ncc(C#N)c(N)n3)c2C)c1	> 8.39 µM	> 8.39 µM
CC(C)(C)NC(=S)Nc1cc(C(F)(F)F)c(Cl)cc1Cl	> 9.56 µM	> 9.56 µM
Oc1c(Cl)cc(Cl)cc1C1Nc2cccc3cccc(c23)N1	> 9.96 µM	> 9.96 µM
Cc1c(C(=O)Nc2nonc2-c2ccc3c(c2)CCCC3)oc2ccccc12	> 8.84 µM	> 8.84 µM
Cc1c(C)n(Cc2ccccc2)c2ncn3nc(-c4cccnc4)nc3c12	> 9.31 µM	> 9.31 µM
Nc1c(C(=O)Nc2nc3ccccc3s2)sc2ncccc12	0.00465 µM	0.512 µM
O=C(c1ccc2cc[nH]c2c1)N1CCN(C/C=C/c2ccccc2)CC1	7.41 µM	9.08 µM
CCCCCc1ccc(NC(=O)NC2=NCCS2)cc1	> 11.3 µM	> 11.3 µM
COc1ccc(C(=O)Nc2nonc2-c2ccc(F)cc2)cc1Cl	3.16 µM	3.66 µM
Cc1nc2c3c(C)c(C)n(C4CCCCCC4)c3ncn2n1	> 11.1 µM	> 11.1 µM
O=C(c1cc2cc(Cl)ccc2o1)N1CCN(Cc2ccc3c(c2)OCO3)CC1	> 8.27 µM	> 8.27 µM
O=C1/C(=C\c2ccccn2)N(CCc2ccccc2)S(=O)(=O)c2ccccc21	> 8.45 µM	> 8.45 µM
Cc1nc(N2CCC(C)CC2)nc2c1C(=O)CC(/C=C/c1ccccc1)C2 (stereo not drawn)	> 9.13 µM	> 9.13 µM
COc1ccc(CCn2c(C)nc3c(cnn3-c3ccccc3)c2=O)cc1	0.489 µM	3.03 µM
O=c1[nH]c2ccc(NCc3cc(Cl)ccc3OCc3ccc(F)cc3)cc2[nH]1	> 8.29 µM	> 8.29 µM
N#CC(C#N)C=Nc1cc(C(F)(F)F)ccc1N1CCCC1	> 10.8 µM	> 10.8 µM

Structure (SMILES)	IC50	IC90
CCOC(=O)c1cc(C#N)c(C)nc1Sc1ccccc1NC(=O)Nc1ccc(SC(F)(F)F)cc1	> 6.2 µM	> 6.2 µM
COc1ccc(-c2nc(C(=O)NC3CCCC3)cc3c2[nH]c2ccccc23)cc1	8.53 µM	> 8.56 µM
Cc1cccc(OCc2nnnn2-c2ccc(Br)cc2)c1	> 9.56 µM	> 9.56 µM
CC(C)(C)c1ccc(NC(=O)N2CCCN(Cc3ccccc3)CC2)cc1	8.75 µM	> 9.03 µM
Cc1cc(NC(=S)NNC(=O)c2cccnc2Oc2ccccc2)ccc1Br	> 7.22 µM	> 7.22 µM
Cn1c(CNC(=O)c2ccc(Cl)cc2)nc2ccccc21	> 11 µM	> 11 µM
O=C(NNC(=S)Nc1ccc(Cl)c(Cl)c1)c1cccnc1Oc1ccccc1	> 7.62 µM	> 7.62 µM
Cc1cc(Oc2ccc(C(F)(F)F)cc2NS(=O)(=O)c2cc(C(F)(F)F)cc(C(F)(F)F)c2)cc(C)c1Cl	> 5.58 µM	> 5.58 µM
Cc1c(C)n(CC(C)C)c2ncnc(Nc3nccs3)c12	> 10.9 µM	> 10.9 µM
O=C1/C(=C\c2ccccn2)N(Cc2ccccc2)S(=O)(=O)c2ccccc21	2.87 µM	5.19 µM
CC1Cc2nc(N)nc(N)c2CC1C (stereo not drawn)	> 17.2 µM	> 17.2 µM
COc1ccc(OC)c(C(=O)c2oc3cc(NC(=O)C4CC4)ccc3c2C)c1	0.214 µM	0.519 µM
COc1ccccc1N1CCN(C(=O)c2cc3cc(Cl)ccc3o2)CC1	> 8.9 µM	> 8.9 µM
COc1ccc(S(=O)(=O)N2CCN(c3cc(C)c4ccccc4n3)CC2)cc1	> 8.3 µM	> 8.3 µM
O=C(c1c[nH]c2ccccc12)N1CCC(Cc2ccccc2)CC1	> 10.4 µM	> 10.4 µM
Cc1c(C)n(Cc2ccccc2)c2ncn3nc(-c4ccccn4)nc3c12	> 9.31 µM	> 9.31 µM
COc1cc(NS(=O)(=O)c2ccc3ccccc3c2)c(OC)cc1Cl	2.78 µM	4.48 µM
CCc1nnc(NC(=O)C2CCCN2S(=O)(=O)c2ccc(OC)cc2)s1 (stereo not drawn)	4.85 µM	> 8.32 µM
CC(c1ccc(-c2ccccc2)c(F)c1)c1nn2c(-c3ccco3)nnc2s1 (stereo not drawn)	0.85 µM	2.45 µM
O=C1C(=O)N(CCN2CCCCC2)c2ccc(F)cc21	> 11.9 µM	> 11.9 µM
